Experiments:
[1] = test system: blood specimen involving acute myeloid leukemia (AML); settings: live cells from blood specimen, apoptosis by OD at 600 nm
Protocol: In the MiCK assay cancer cells from a patient are placed in a suspension of a given concentration of single cells or small cell clusters and allowed to adjust to conditions in multiple wells of a microtiter plate. […] The optical density of each well is then measured periodically, typically every few minutes, for a period of typically a few days. As a cell undergoes apoptosis-related blebbing, its optical density increases in a nearly linear fashion.
The assay may proceed by selecting an anti-cancer drug candidate and selecting at least one known cancer cell type on which to test the drug. The cancer cells may be suspended as a single-cell suspension in culture medium, such as RPMI. As used herein, a “single cell suspension” is a suspension of one or more cells in a liquid in which the cells are separated as individuals or in small clumps of 50 cells or fewer. […]
Suspended cells may be tested by placing samples in wells of a spectrophotometric plate. The cells may be suspended at any concentration such that during the spectrophotometric measurements of OD, the beam of the plate reader normally passes through the layer of cells. […]
The drug candidate and any control drugs or other control samples may be added to the wells after the adjustment period. […] Although many drug candidates may be water-soluble, drug candidates that are not readily soluble in water may also be tested.

[2] = test system: solid tumor specimen involving lung cancer metastases; assay: MiCK assay of apoptosis on patient solid tumor specimen (Appendix A report); type: cell-based; settings: live cells from solid tumor specimen, apoptosis by OD at 600 nm
Text: Such candidates may be mixed with any appropriate carrier.
Spectrophotometric data may be converted to kinetic units.
Kinetic units may be determined as follows:
KU=(VmaxDrug Treated−Vmaxcontrol)×60X y/(ODcell−ODblank).
Appendix A is a report based on tests conducted on a solid tumor specimen involving lung cancer metastases.

Row | Structure (SMILES) | maximum kinetic units (KU) [1] | maximum kinetic units (KU) [2]
1 | O=P1(N(CCCl)CCCl)NCCCO1 (centres unmarked) [Cytoxan, cyclophosphamide] | 7.4 KU | –
2 | CC(=O)O[C@H]1C(=O)[C@@]2(C)[C@H]([C@H](OC(=O)c3ccccc3)[C@]3(O)C[C@H](OC(=O)[C@H](O)[C@@H](NC(=O)c4ccccc4)c4ccccc4)C(C)=C1C3(C)C)[C@]1(OC(C)=O)CO[C@@H]1C[C@@H]2O [paclitaxel] | – | 7.6 KU
